Like-named read-outs stand apart in the source and are kept apart here.
Tests used:
[1] = biological target: T1, Human cytomegalovirus DNA polymerase (Human cytomegalovirus, UniProt P08546); assay: CMV polymerase assay (AlphaLISA); format: biochemical; details: HCMV polymerase 0.2 nM; 30 min pre-incubation; 60 min at 37° C.; read-out: CMV (IC50)
T1 construct: made in house; host or cells: SF21 insect cells (baculovirus vector)
Summary of the method: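 Baculovirus-expressed polymerase (HCMV 0.2 nM, VZV 0.4 nM) preincubated 30 min with compound, then reacted 60 min at 37 °C with 1.6 nM DIG-primer/59-mer template and low-nM dNTPs including 0.8 nM biotin-dUTP. Incorporation detected by AlphaLISA; IC50 from a 4-parameter fit normalized to DMSO and pre-quenched controls.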

HSV-1 Strain F = assay: Viral qPCR assay, HSV-1; format: cell-based, Herpes Simplex Virus type 1; details: Vero or MRC5 cells, 0.0005-0.004 pfu/cell, growth medium, viral genome copies by qPCR, read-out: HSV1 Cell (EC50)
Summary of the method: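 HSV-1 strain F at 0.0005–0.004 pfu/cell infected Vero or MRC5 cells, which were added to a 10-point 3-fold compound dilution and cultured ~72 h at 37 °C. Viral genomes in the lysates were quantified by TaqMan qPCR against a plasmid standard curve, in some runs normalized to cellular PPIA. EC50 came from a 4-parameter fit of % effect.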

[2] = biological target: T2, varicella zoster virus DNA polymerase (Varicella-zoster virus, UniProt P09252); assay: VZV polymerase assay (AlphaLISA); format: biochemical; details: VZV polymerase 0.4 nM; 30 min pre-incubation; 60 min at 37° C.
T2 construct: made in house; host or cells: SF21 insect cells (baculovirus vector)
Protocol: Human cytomegalovirus and varicella zoster virus DNA polymerases were expressed via baculovirus vector in SF21 cells and purified. Heterodimeric nucleic acid substrate used in the herpesvirus polymerase reactions was generated by annealing a 59-mer template to a 17-mer digoxigenin-labeled primer. Polymerase (HCMV final concentration of 0.2 nM; VZV final concentration of 0.4 nM) was combined with an inhibitor compound or DMSO in assay buffer (10 mM HEPES, pH 7.5, 25 mM KCl, 25 mM NaCl, 5 mM MgCl2, 5% glycerol, 0.67 mg/ml bovine serum albumin, and 1 mM tris(2-carboxyethyl)phosphine), and this mixture was pre-incubated for 30 minutes at room temperature in 384-well microtiter plates. The polymerization reaction was initiated by the addition of template/primer substrate (final concentration: 1.6 nM), and dNTPs (final concentration: 24 nM dCTP, 24 nMdGTP, 16 nM dATP, 16 nM dTTP, and 0.8 nM biotin-dUTP). After 60 min incubation at 37° C., reactions were terminated with quench buffer (25 mM HEPES pH 7.5, 100 mM NaCl, 0.25% Tween-20, 12 mM EDTA, and 1 mg/ml bovine serum albumin). Incorporation of biotinylated UTP was detected with 2.5-5 ug/ml anti-DIG AlphaLISA acceptor beads and 5-10 ug/ml streptavidin AlphaLISA donor beads (PerkinElmer). Compound effects were normalized to the window defined by the controls (DMSO only and pre-quenched wells) and were fit using a 4-parameter algorithm to report an IC50.

HCMV Strain AD169 = assay: Viral qPCR assay, HCMV; format: cell-based, Human cytomegalovirus; details: MRC-5 cells, 0.05-0.1 pfu/cell, growth media or 50% fetal bovine serum, viral genome copies by qPCR, read-out: CMV Cell (EC50)
Summary of the method: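 HCMV AD169 at 0.05-0.1 pfu/cell infected MRC-5 cells, added to 10-point 3-fold compound dilutions, in growth medium or medium with 50% FBS; ~72 h at 37°C. Viral genome copies by TaqMan qPCR against plasmid standard curve, normalized to DMSO and uninfected controls; EC50 from 4-parameter fit.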

VZV = assay: Viral qPCR assay, VZV; format: cell-based, varicella zoster virus; details: MeWo or MRC5 cells, 0.04-0.1 pfu/cell, growth medium, viral genome copies by qPCR
Summary of the method: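 VZV strain Street at 0.04-0.1 pfu/cell infected MeWo or MRC5 cells added to 10-point, 3-fold compound dilutions; ~72 h at 37° C. Viral genome copies by TaqMan qPCR against plasmid standard curve, sometimes normalised to PPIA, scaled between uninfected and DMSO-infected controls; EC50 from 4-parameter fit.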

[3] = Human betaherpesvirus 5, AD169, MRC5, 72 h

T2 sequence (P09252 whole entry): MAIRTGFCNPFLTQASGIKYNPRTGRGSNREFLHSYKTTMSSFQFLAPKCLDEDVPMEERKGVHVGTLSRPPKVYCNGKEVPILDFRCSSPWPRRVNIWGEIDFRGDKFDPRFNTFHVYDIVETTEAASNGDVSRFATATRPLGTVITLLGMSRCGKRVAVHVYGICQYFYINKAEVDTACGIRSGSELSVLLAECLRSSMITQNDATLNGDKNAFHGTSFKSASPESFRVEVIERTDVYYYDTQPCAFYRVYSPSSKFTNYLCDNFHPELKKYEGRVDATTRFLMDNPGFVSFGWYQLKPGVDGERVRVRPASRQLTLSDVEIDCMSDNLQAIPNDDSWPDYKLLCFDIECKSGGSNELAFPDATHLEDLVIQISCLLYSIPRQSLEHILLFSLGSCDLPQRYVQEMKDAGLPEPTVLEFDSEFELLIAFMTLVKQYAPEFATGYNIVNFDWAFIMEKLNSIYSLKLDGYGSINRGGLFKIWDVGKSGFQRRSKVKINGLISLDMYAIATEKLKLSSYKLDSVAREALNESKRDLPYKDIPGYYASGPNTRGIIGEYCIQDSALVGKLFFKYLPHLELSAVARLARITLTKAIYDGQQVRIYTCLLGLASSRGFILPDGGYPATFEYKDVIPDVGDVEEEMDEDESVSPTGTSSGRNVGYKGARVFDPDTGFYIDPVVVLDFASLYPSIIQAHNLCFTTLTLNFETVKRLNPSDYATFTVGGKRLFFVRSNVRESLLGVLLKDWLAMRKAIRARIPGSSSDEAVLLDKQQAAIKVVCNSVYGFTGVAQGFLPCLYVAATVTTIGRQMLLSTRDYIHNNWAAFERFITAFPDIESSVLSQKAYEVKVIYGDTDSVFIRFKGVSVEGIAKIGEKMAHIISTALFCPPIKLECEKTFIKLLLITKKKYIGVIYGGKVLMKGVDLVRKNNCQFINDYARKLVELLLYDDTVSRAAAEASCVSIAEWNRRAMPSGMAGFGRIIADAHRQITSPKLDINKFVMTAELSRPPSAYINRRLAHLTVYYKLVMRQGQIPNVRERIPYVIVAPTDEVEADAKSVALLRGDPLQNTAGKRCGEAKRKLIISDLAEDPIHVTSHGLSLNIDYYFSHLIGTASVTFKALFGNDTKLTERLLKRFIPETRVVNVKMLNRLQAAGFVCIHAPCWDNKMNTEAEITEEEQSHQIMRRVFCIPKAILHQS
T1 sequence (P08546 whole entry): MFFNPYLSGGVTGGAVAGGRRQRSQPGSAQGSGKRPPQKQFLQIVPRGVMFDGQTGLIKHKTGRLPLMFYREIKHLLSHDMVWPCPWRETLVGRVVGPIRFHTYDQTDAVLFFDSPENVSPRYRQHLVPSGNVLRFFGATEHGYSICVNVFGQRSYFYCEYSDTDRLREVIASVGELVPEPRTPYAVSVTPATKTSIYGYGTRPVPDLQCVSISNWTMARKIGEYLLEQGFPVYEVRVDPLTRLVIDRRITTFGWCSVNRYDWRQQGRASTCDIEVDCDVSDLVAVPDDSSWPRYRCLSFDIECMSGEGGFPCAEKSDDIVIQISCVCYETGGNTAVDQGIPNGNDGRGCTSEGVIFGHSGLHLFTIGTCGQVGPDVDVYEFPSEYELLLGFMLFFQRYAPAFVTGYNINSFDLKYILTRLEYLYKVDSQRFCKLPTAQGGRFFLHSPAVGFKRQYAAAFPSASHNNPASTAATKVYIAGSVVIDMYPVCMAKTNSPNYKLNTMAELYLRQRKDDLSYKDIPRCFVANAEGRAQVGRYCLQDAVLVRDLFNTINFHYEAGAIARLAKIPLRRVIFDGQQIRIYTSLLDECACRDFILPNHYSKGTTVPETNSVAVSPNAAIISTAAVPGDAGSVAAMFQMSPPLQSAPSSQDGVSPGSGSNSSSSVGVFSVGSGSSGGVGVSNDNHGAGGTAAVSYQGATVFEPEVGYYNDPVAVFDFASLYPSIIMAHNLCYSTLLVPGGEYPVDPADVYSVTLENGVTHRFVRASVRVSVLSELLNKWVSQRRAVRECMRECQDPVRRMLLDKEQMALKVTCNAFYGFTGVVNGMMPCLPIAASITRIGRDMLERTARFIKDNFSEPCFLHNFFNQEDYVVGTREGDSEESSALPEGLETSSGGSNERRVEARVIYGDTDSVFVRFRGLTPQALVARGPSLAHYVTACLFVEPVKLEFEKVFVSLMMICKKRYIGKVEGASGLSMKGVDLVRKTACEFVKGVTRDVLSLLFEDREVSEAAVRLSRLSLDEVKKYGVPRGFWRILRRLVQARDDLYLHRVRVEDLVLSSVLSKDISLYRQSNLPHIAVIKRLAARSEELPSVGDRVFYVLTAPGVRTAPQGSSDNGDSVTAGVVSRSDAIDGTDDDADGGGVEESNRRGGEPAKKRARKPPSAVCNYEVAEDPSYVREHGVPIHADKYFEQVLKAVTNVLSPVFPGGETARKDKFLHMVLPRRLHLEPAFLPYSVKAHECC

Row | Compound | IC50 [1] | EC50 (HSV-1 Strain F; Human alphaherpesvirus 1, 72 h) | IC50 [2] | EC50 (HCMV Strain AD169; [3]) | EC50 (VZV; Human alphaherpesvirus 3, 72 h) | EC50 (HSV-1 Strain F; ~72 hrs) | EC50 (HCMV Strain AD169; ~72 hrs) | EC50 (VZV; ~72 hrs)
1 | COc1nc(N2CCC(C(C)(C)N)C2)c(O[C@H]2CCN3C(=O)OC[C@@H]3C2)cc1C(=O)NCc1ccc(Cl)cc1 (single isomer, unassigned) [Compound 71] | 22.8 nM | 396 nM | 3.54 nM | 221 nM | 468 nM | – | – | –
2 | COc1nc(N2CCC(C(C)(C)N)C2)c(O[C@H]2CCN3C(=O)OC[C@@H]3C2)cc1C(=O)NCc1ccc(Cl)cc1 (single isomer, unassigned) [Compound 72] | 45.5 nM | – | 12.4 nM | – | – | 559 nM | 276 nM | 665 nM
3 | COc1nc(-c2cnn(C(F)F)c2)c(O[C@H]2CCN3C(=O)OC[C@@H]3C2)cc1C(=O)NCc1ccc(Cl)cc1 [Compound 4] | 7.52 nM | 105 nM | 0.715 nM | 146 nM | 141 nM | – | – | –
4 | COc1nc(-c2cnc(C)o2)c(O[C@H]2CCN3C(=O)OC[C@@H]3C2)cc1C(=O)NCc1ccc(Cl)cc1 [Compound 5] | 4.11 nM | 80.1 nM | 0.161 nM | 71.4 nM | 107 nM | – | – | –
5 | COc1nc(-c2cnco2)c(O[C@H]2CCN3C(=O)OC[C@@H]3C2)cc1C(=O)NCc1ccc(Cl)cc1 [Compound 6] | 1.05 nM | 87.5 nM | 0.0674 nM | 77 nM | 110 nM | – | – | –
6 | COc1nc(-c2cc(C)ns2)c(O[C@H]2CCN3C(=O)OC[C@@H]3C2)cc1C(=O)NCc1ccc(Cl)cc1 [Compound 7] | 1.32 nM | 72.6 nM | 0.223 nM | 82.6 nM | 129 nM | – | – | –
7 | COc1nc(C)c(O[C@H]2CCN3C(=O)OC[C@@H]3C2)cc1C(=O)NCc1ccc(Cl)cc1 [Compound 8] | 37.9 nM | 866 nM | 15 nM | 415 nM | 841 nM | – | – | –
8 | COc1nc(-c2cc(C)no2)c(O[C@H]2CCN3C(=O)OC[C@@H]3C2)cc1C(=O)NCc1ccc(Cl)cc1 [Compound 9] | 4.87 nM | 85.7 nM | 1.71 nM | 111 nM | 98.4 nM | – | – | –
9 | COc1nc(-c2cnc(C3CC3)o2)c(O[C@H]2CCN3C(=O)OC[C@@H]3C2)cc1C(=O)NCc1ccc(Cl)cc1 [Compound 10] | 11.3 nM | 150 nM | 0.508 nM | 134 nM | 131 nM | – | – | –
10 | COc1nc(-c2cnn(Cc3ccccn3)c2)c(O[C@H]2CCN3C(=O)OC[C@@H]3C2)cc1C(=O)NCc1ccc(Cl)cc1 [Compound 15] | 12 nM | 233 nM | 12.9 nM | 144 nM | 355 nM | – | – | –
11 | COc1nc(-c2cncs2)c(O[C@H]2CCN3C(=O)OC[C@@H]3C2)cc1C(=O)NCc1ccc(Cl)cc1 [Compound 16] | 2.07 nM | – | 0.63 nM | 137 nM | – | – | – | –
12 | COc1nc(-c2cnc(C(C)(C)O)s2)c(O[C@H]2CCN3C(=O)OC[C@@H]3C2)cc1C(=O)NCc1ccc(Cl)cc1 [Compound 19] | 5.55 nM | 96.9 nM | 2.91 nM | 157 nM | 204 nM | – | – | –
13 | COc1nc(-c2cnn(C3CC3)c2)c(O[C@H]2CCN3C(=O)OC[C@@H]3C2)cc1C(=O)NCc1ccc(Cl)cc1 [Compound 22] | 3.69 nM | 93 nM | 4.84 nM | 170 nM | 129 nM | – | – | –
14 | COc1nc(-c2cnn3c2CCC3)c(O[C@H]2CCN3C(=O)OC[C@@H]3C2)cc1C(=O)NCc1ccc(Cl)cc1 [Compound 24] | 7.58 nM | 195 nM | 4.03 nM | 200 nM | 390 nM | – | – | –
15 | COc1nc(-c2ccnnc2)c(O[C@H]2CCN3C(=O)OC[C@@H]3C2)cc1C(=O)NCc1ccc(Cl)cc1 [Compound 37] | 8.81 nM | 144 nM | 8.24 nM | 180 nM | 178 nM | – | – | –
16 | COc1nc(-c2cncnc2)c(O[C@H]2CCN3C(=O)OC[C@@H]3C2)cc1C(=O)NCc1ccc(Cl)cc1 [Compound 38] | 9.81 nM | 83.1 nM | 5.86 nM | 111 nM | 150 nM | – | – | –
17 | COc1nc(-c2cccnc2)c(O[C@H]2CCN3C(=O)OC[C@@H]3C2)cc1C(=O)NCc1ccc(Cl)cc1 [Compound 40] | 15.9 nM | 123 nM | 10.2 nM | 206 nM | 200 nM | – | – | –
18 | COc1nc(-c2cnc(N)c(F)c2)c(O[C@H]2CCN3C(=O)OC[C@@H]3C2)cc1C(=O)NCc1ccc(Cl)cc1 [Compound 46] | 4.69 nM | 51.6 nM | 1.53 nM | 165 nM | 121 nM | – | – | –
19 | COc1nc(-c2cnn(C(F)F)c2)c(O[C@H]2CCN3C(=O)OC[C@@H]3C2)cc1C(=O)NCc1ccc(Cl)c(F)c1 [Compound 55] | 3.16 nM | 102 nM | 5.38 nM | 161 nM | 178 nM | – | – | –
20 | COc1nc(-c2cnn(C(F)F)c2)c(O[C@H]2CCN3C(=O)OC[C@@H]3C2)cc1C(=O)NCc1ccc(C#N)cc1 [Compound 56] | 2.08 nM | 36.3 nM | 6.48 nM | 102 nM | 123 nM | – | – | –
21 | COc1nc(-c2cnn(C(F)F)c2)c(O[C@H]2CCN3C(=O)OC[C@@H]3C2)cc1C(=O)NCc1ccc(C#N)c(F)c1 [Compound 58] | 2.95 nM | 63.4 nM | 0.259 nM | 59.3 nM | 103 nM | – | – | –
22 | COc1nc(-c2cnco2)c(O[C@H]2CCN3C(=O)OC[C@@H]3C2)cc1C(=O)NCc1ccc(C#N)cc1 [Compound 60] | 6.32 nM | 65 nM | 0.351 nM | 29.8 nM | 90.4 nM | – | – | –
23 | COc1nc(-c2nc(C)ns2)c(O[C@H]2CCN3C(=O)OC[C@@H]3C2)cc1C(=O)NCc1ccc(Cl)cc1 [Compound 61] | 1.44 nM | 49 nM | 0.0412 nM | 60.1 nM | 70.8 nM | – | – | –
24 | COc1nc(-c2ncco2)c(O[C@H]2CCN3C(=O)OC[C@@H]3C2)cc1C(=O)NCc1ccc(Cl)cc1 [Compound 62] | 4.3 nM | 129 nM | 0.252 nM | 73 nM | 157 nM | – | – | –
25 | NC(=O)CCOc1nc(-c2cnn(C(F)F)c2)c(O[C@H]2CCN3C(=O)OC[C@@H]3C2)cc1C(=O)NCc1ccc(Cl)cc1 [Compound 100] | 3.17 nM | 213 nM | – | 47.4 nM | 451 nM | – | – | –
26 | CCOc1nc(-c2cnn(C(F)F)c2)c(O[C@H]2CCN3C(=O)OC[C@@H]3C2)cc1C(=O)NCc1ccc(Cl)cc1 [Compound 101] | 42.6 nM | 320 nM | – | 524 nM | 578 nM | – | – | –
27 | COc1nc(-c2cnn(C(F)F)c2)c(O[C@@H]2CCN(C(C)=O)[C@H](C)C2)cc1C(=O)NCc1ccc(Cl)cc1 [Compound 102] | 14.5 nM | 601 nM | – | 344 nM | 887 nM | – | – | –
28 | COc1ncc(O[C@H]2CCN3C(=O)OC[C@@H]3C2)cc1C(=O)NCc1ccc(Cl)cc1 [Compound 103] | 249 nM | – | 110 nM | 4690 nM | 5500 nM | – | – | –

From US20240083910A1, “AMIDO-SUBSTITUTED PYRIDYL COMPOUNDS AND METHODS OF USE THEREOF FOR THE TREATMENT OF HERPESVIRUSES” (Merck Sharp & Dohme LLC, priority 2020, published 2024)
